Experimental data: PMC3963952, “The 2.1 Å Resolution Structure of Cyanopindolol-Bound β1-Adrenoceptor Identifies an Intramembrane Na^+ Ion that Stabilises the Ligand-Free Receptor” (PLoS ONE, 2014)
pEC50, pKd: −log10 of the molar value.

Key:
β1AR = β1AR (Meleagris gallopavo, UniProt P07700)
Protocol: For the thermostability assay for the ligand-free receptor, 1–2.5 mg of E. coli-expressed membrane protein was solubilised for 30 min on ice with 1% DDM and insoluble material was removed by centrifugation (5 min, 20,000 g). Samples were then adjusted to give the desired concentration of NaCl or choline chloride. Thermostability was measured by incubating the sample at the specified temperature for 30 min; reactions were placed on ice, and ^3H-DHA was added (50 nM final concentration) and equilibrated (2 h, 4°C). Receptor-bound and free radioligand were separated by spin gel filtration assays as described previously. Nonspecific binding was determined in the presence of 1 mM alprenolol. Radioactivity was counted on a MicroBeta TriLux scintillation counter (Perkin Elmer), and data were analyzed by nonlinear regression using Prism software (GraphPad).
Figure 4 Thermostability of β1AR mutants.

A2AR = conditions: cited from earlier work
[1] = target: neurotensin receptor (NTSR1); design: method as in PMID 23051748; conditions: read-out: EC50 for the allosteric effect of Na+ on NTSR1; cited from earlier work

Chain of β1AR (P07700 whole entry): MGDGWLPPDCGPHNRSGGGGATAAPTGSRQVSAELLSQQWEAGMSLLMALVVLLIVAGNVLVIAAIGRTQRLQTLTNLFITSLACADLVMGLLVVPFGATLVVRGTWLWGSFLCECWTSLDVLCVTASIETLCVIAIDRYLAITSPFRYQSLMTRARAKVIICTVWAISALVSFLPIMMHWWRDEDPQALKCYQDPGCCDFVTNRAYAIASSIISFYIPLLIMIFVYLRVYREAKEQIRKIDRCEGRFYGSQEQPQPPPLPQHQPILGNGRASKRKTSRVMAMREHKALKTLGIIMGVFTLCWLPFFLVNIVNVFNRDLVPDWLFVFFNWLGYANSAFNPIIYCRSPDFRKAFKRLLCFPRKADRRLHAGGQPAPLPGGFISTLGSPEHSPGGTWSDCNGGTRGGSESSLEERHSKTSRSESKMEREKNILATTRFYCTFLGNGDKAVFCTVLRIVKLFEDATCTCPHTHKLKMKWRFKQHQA

| Compound | apparent Tm of dodecylmaltoside-solubilised ligand-free β1AR (β1AR; in 150 mM of the named salt, heated 30 min, ±SEM) | pEC50 (A2AR; also calculated from data in ref 21, read-out: EC50 for the allosteric effect of Na+ on A2AR) | pKd (A2AR; no reference given, read-out: KD of Na+ binding to A2AR) | pEC50 [1] | decrease of β1AR thermostability in the absence of Na+ (β1AR; ligand-free β1AR, 150 mM NaCl versus 150 mM choline chloride) |
| --- | --- | --- | --- | --- | --- |
| C[N+](C)(C)CCO.[Cl-] [choline chloride] | 19.1±0.6 °C | – | – | – | – |
| [Cl-].[Na+] [Na^+] | – | 1.32 to 1.40 | 1.30 to 1.40 | 1.37 | 7.5 °C |
